Converted amounts (≈) assume the structure as drawn. Like-named read-outs stand apart in the source and are kept apart here.
Columns and labels:
LLC/KSA tumors = format: in vivo
Experimental: (§1) For tumor growth studies either LLC/KSA or CT26/KSA tumors were implanted subcutaneously on the backs of mice. For LLC/KSA studies, tumors were transplanted from several stock tumors that had been injected with a single cell suspension of 1×10^6 cells in 100 ul of PBS. After about two weeks, tumors were aseptically collected, passed through a sieve fitted with a 150 μm screen. Cells were then passed through a syringe and 23 gauge needle tow or three times, washed twice, and resuspended in PBS. A single cell suspension of 1×10^6 LLC/KSA cells in 100 ul of PBS was injected subcutaneously using a 30 ½ gauge needle on the backs of mice. For CT26/KSA studies, cells growing exponentially in culture were injected as a single cell suspension of 1×10^6 cells in 100 μl of PBS. After tumors had become established, about 2 weeks after implantation, dosing was initiated on Day 0. Tumors were measured with calipers in three dimensions twice weekly. Tumor volumes were calculated using the equation: Volume=½×4/3π(L/2×W/2×H) where L=length, W=width and H=height of the tumor. Animals were weighed and general health was monitored during the course of the study. When tumors became necrotic or if animals became moribund, the animals were euthanized by CO2 asphyxiation.
Data are presented in graphic form. Graphs depict individual or average tumor volumes (+/− SEM) during and after dosing. Data are also expressed as the percent of control of average tumor volumes from treated mice relative to vehicle treated mice. Student's t test was performed on the individual tumor volumes to determine significant differences.

[1] = system: multidrug resistant tumors; conditions: cited from earlier work
[2] = cited from earlier work
P-glycoprotein = P-glycoprotein (Homo sapiens, UniProt P08183); conditions: cited from earlier work
[3] = system: lung carcinoma subcutaneous tumors; experiment: Tumor growth assay, established lung carcinoma subcutaneous tumors; format: in vivo, mouse; conditions: FIG. 9C; cyclophosphamide single dose 80 mg/kg; huKS-IL2 20 μg x 5 daily doses, 3 days after cyclophosphamide in combination; Day 20
[4] = system: breast carcinoma subcutaneous tumors; experiment: Tumor growth assay, established breast carcinoma subcutaneous tumors; format: in vivo, mouse; conditions: FIG. 9B; cyclophosphamide single dose 80 mg/kg; huKS-IL2 30 μg x 5 daily doses, 3 days after cyclophosphamide in combination; Day 25
[5] = system: 4T1 breast carcinoma cells; conditions: FIG. 9; cyclophosphamide single dose 15 or 40 mg/kg; combination: huKS-IL2 15 ug/day for 5 days from three days later
Experimental: 4T1 breast carcinoma cells were injected intravenously into immuno-competent mice to establish pulmonary metastases 3 days before treatment.

4T1/KSA cells = experiment: Cytotoxicity assay (MTS, verified by crystal violet); format: cell-based; conditions: Mus musculus, 144 h; read-out: Paclitaxel IC50
Experimental: (§2) The cell lines engineered for use in animal models (example 1) were tested for their sensitivity to taxane-induced cytotoxicity in cell culture in the presence or absence of the an IL-2 based immunocytokine consisting of the humanized form of the KS-1/4 antibody fused at the carboxyl terminus of the H chain to human IL-2 (huKS-huγ1-huIL2, hereafter abbreviated, KS-IL2). Cells were seeded at 1000 cell/well in 96 well flat-bottom plates and incubated for 24 hours at 37° C., 7% CO2. Paclitaxel, at 2-fold dilutions from 200 ng/ml to 3.125 ng/ml, KS-IL2, at 200 ng/ml and IL-2, at 33.3 ng/ml (the equivalent amount of IL-2 in KS-IL2) were added in duplicate to the cell culture plates and incubated for 6 days at 37° C., 7% CO2. The MTS calorimetric assay (Promega), a measure of cell viability based on the cellular conversion of a tetrazolium salt, was performed directly in the 96 well plates. After plates were read and recorded, viable adherent cells were stained with Crystal violet (Sigma, St. Louis, Mo). Crystal violet stained plates were used to verify MTS assay results. […] The IC50 is the concentration of drug that produced cytotoxicity at a level of 50% of control.
(§3) A cytotoxicity assay was performed with paclitaxel (3 to 200 ng/ml) alone or combined with KS-IL2 (200 ng/ml) or IL-2 (33.3 ng/ml, the equivalent amount of IL-2 in KS-IL2) against CT26/KSA, LLC/KSA and 4T1/KSA cells.

[6] = system: 4T1/KSA breast carcinoma cells; experiment: Experimental lung metastasis model with 4T1/KSA cells; format: in vivo, mouse; conditions: for reduction of average lung weights: FIG. 4, combination with KS-IL2 15 μg/dose x 3 days given 4 hr after paclitaxel
Experimental: For experimental lung metastases studies, a single cell suspension of 2.5×10^5 4T1/KSA cells in 100 μl of PBS was slowly injected using a 27½ gauge needle into the lateral tail vein on Day 0. About 3 weeks-after inoculation animals were sacrificed; their lungs were removed and weighed. […] Data are presented in graphic form. Graphs depict average tumor burdens (+/− SEM) at time of sacrifice. Tumor burden was determined by subtracting the weight of a normal lung from the weight of the experimental lungs.
For this experiment we used an experimental lung metastasis model induced with 4T1/KSA breast carcinoma cells. The doses of the drugs were selected to be sub-optimal by themselves so that any potential additive or synergistic activity could be observed.

[7] = system: CT26/KSA colon carcinoma skin tumors; experiment: CT26/KSA established skin tumor growth assay; format: in vivo, mouse; conditions: paclitaxel single dose 75 mg/kg
Experimental: as §1
Data are presented in graphic form. Graphs depict individual or average tumor volumes (+/− SEM) during and after dosing. […]

CT26/KSA cells = experiment: Cytotoxicity assay (MTS, verified by crystal violet); format: cell-based; conditions: Mus musculus, CT26, 144 h; read-out: Paclitaxel IC50
Experimental: as §2, §3

LLC/KSA cells = experiment: as above; format: cell-based; conditions: Mus musculus, 144 h; read-out: Paclitaxel IC50
Experimental: as §2, §3

[8] = system: CT26/KSA liver metastases; conditions: FIG. 6, combination: KS-IL2 7 ug for 5 days from one day later
Experimental: For experimental hepatic metastases studies, mice were anesthetized using 80 mg/kg ketamine HCL (Fort Dodge Animal Health, Fort Dodge, Iowa) and 5 mg/kg xylazine (Bayer, Shawnee Mission, Kans.). A single cell suspension of 1×10^5 CT26/KSA cells in 100 μl of DMEM containing 25 mM HEPES (GIBCO) was injected using a 27½ gauge needle beneath the splenic capsule over a period of 60 seconds on Day 0. After another 2 minutes the splenic vessels were cauterized with a cautery unit (Roboz, Rockville, Md.) and the spleen removed. Animals were sutured using autoclips. Three weeks after inoculation the animals were sacrificed; their livers were removed and weighed. The livers were then fixed and stained in Bouin's solution (Sigma, St. Louis Mo.).
Graphs depict average tumor burdens (+/− SEM) at the time of sacrifice. Tumor burdens were determined by subtracting the weight of a normal liver from the weight of the experimental livers. Data are also expressed as the percent of control of the average tumor burden from treated mice relative to vehicle treated mice. Student's t test was performed on the individual tumor burdens to determine significant differences.
A second experiment was performed using the CT26/KSA model, this time testing the effect of combined therapy on established liver metastases and again using the 24 hr delay between paclitaxel administration and KS-IL2 treatment. We also compared the dose response of paclitaxel in the combination therapy. Mice were injected with 25, 50, or 75 mg/kg of paclitaxel on Day 5 after metastasis induction, alone or followed one day later with KS-IL2 (7 ug) for 5 days.

[9] = comparative statement, Polizzi et al. 1999
[10] = FIG. 3, paclitaxel multiple doses 50 mg/kg every other day, combination: KS-IL2 one week following paclitaxel

Chain of P-glycoprotein (P08183 whole entry): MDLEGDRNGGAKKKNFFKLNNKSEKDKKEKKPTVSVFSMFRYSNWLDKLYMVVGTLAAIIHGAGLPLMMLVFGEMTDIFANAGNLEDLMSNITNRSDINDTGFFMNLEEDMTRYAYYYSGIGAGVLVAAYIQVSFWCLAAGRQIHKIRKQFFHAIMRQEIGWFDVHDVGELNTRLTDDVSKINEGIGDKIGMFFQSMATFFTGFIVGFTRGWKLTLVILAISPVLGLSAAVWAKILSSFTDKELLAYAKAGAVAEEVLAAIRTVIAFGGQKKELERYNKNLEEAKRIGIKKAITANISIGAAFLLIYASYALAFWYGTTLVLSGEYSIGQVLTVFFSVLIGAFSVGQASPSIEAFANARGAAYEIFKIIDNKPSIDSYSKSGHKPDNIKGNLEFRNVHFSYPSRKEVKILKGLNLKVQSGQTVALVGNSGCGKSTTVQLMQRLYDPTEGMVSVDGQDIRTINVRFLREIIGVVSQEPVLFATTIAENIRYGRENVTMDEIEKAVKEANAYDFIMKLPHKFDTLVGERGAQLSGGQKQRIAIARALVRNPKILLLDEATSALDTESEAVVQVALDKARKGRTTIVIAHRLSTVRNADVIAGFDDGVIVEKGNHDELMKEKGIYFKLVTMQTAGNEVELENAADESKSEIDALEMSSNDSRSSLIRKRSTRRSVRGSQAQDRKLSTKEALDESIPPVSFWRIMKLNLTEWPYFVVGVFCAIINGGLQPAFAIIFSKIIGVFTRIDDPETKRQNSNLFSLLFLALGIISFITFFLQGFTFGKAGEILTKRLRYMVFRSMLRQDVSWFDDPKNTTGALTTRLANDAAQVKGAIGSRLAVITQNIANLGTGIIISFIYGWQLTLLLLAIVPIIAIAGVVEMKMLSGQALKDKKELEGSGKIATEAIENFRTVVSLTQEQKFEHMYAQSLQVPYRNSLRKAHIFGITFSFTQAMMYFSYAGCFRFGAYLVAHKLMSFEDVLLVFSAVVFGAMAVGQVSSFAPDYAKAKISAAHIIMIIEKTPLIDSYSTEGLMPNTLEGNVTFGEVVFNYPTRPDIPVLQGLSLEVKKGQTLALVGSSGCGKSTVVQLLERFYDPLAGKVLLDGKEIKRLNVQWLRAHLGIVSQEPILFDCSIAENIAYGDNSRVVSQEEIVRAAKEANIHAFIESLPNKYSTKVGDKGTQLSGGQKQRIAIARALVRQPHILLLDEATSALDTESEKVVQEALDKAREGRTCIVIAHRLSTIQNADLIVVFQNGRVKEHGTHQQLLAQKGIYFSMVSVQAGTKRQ

Compound: N.N.O=C([O-])C1(C(=O)[O-])CCC1.[Pt+2] [Carboplatin]
- effect on tumor growth / average tumor volume on Day 20 (LLC/KSA tumors; FIG. 10, Carboplatin 75 mg/kg Day 0, KS-IL2 20 ug per day for 5 days, three days after Carboplatin in combination): modest decrease

Compound: CC(=O)O[C@H]1C(=O)[C@@]2(C)[C@H]([C@H](OC(=O)c3ccccc3)[C@]34OC(=O)O[C@H]3[C@H](OC(=O)[C@H](O)[C@H](CC(C)C)NC(=O)OC(C)(C)C)C(C)=C1C4(C)C)[C@]1(OC(C)=O)CO[C@@H]1C[C@@H]2O [IDN5109]
- activity against multidrug resistant tumors [1]: generally more active
- neurotoxic side effects [2, 9]: less neurotoxic side effects
- tolerated dose [2, 9]: higher tolerated dose
- oral bioavailability ([2]; in vivo, po): orally bioavailable
- substrate for P-glycoprotein (P-glycoprotein): poor substrate

Compound: O=P1(N(CCCl)CCCl)NCCCO1 (centres unmarked) [cyclophosphamide]
- reduction of average tumor volumes [3]: 27%
- reduction of average tumor volumes [4]: 69%
- lung metastasis tumor burden [5]: modest reduction

Compound: CC(=O)O[C@H]1C(=O)[C@@]2(C)[C@H]([C@H](OC(=O)c3ccccc3)[C@]3(O)C[C@H](OC(=O)[C@H](O)[C@@H](NC(=O)c4ccccc4)c4ccccc4)C(C)=C1C3(C)C)[C@]1(OC(C)=O)CO[C@@H]1C[C@@H]2O [paclitaxel]
- IC50 (4T1/KSA cells): 0.016 µg/mL (≈ 0.0187 µM)
- effect on tumor growth, agent given alone (LLC/KSA tumors; FIG. 2, paclitaxel single dose 80 mg/kg, KS-IL2 20 μg i.v. Days 0-4): No effect
- average tumor volume (LLC/KSA tumors; [10]): 63 % of control
- tumor growth delay (TGD) (LLC/KSA tumors; [10]): 4 days
- weight loss, comparison of groups ([6]; 25 mg/kg of paclitaxel given 3 times every other day): greatest weight loss
- reduction of average lung weights ([6]; paclitaxel multiple doses 25 mg/kg x 3 days): 49%
- reduction of average lung weights ([6]; paclitaxel single dose 75 mg/kg): 43%
- effect on tumor growth ([7]; Example 9, huKS-muγ2a-muIL12 5 μg per day for 5 days, starting 24 hr after paclitaxel in combination): very little effect
- effect on tumor growth, alone ([7]; FIG. 5): no effect
- IC50 (CT26/KSA cells): 0.027 µg/mL (≈ 0.0316 µM)
- IC50 (LLC/KSA cells): 0.006 µg/mL (≈ 0.00703 µM)
- tumor burden ([8]; paclitaxel 25 mg/kg on Day 5): 49 % of control
- tumor burden ([8]; paclitaxel 50 mg/kg on Day 5): 23 % of control
- tumor burden ([8]; paclitaxel 75 mg/kg on Day 5): 10 % of control
